The source of these data is PMC10347545 (Journal of the American Chemical Society, 2023).

Data set [1] deals with PPARγ-RXRα heterodimer. The data set is described as follows: PPARγ-RXRα heterodimer formation assay. The class given is biochemical.
In data set [2] the test system is HepG2 cells. The data set is described as follows: Differential gene expression. The conditions noted are these: 20 μM. The class given is cell-based.
The subject of data set [3] is FOXO3a. The data set is described as follows: FOXO3a Ser253 phosphorylation. The data set is classed as cell-based. The conditions noted are these: 20 μM, 16 h.
In data set [4] the target is T1, PPARγ LBD (Homo sapiens, UniProt P37231).
T1 sequence (P37231 238-503 limits assumed): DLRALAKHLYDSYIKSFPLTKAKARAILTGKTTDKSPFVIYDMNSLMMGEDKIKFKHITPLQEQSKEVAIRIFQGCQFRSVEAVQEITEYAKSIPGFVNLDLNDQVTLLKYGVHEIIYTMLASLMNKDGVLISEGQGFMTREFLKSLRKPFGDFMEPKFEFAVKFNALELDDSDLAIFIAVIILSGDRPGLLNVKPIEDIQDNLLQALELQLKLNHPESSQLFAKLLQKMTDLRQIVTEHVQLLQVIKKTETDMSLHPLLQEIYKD
Put plainly: MS-based PPARγ ligand binding assay. As to conditions: 0.2–4 μM, absence and presence of 1 μM pioglitazone.

The test system of data set [5] is human PPAR response element (PPRE). Put plainly: PPRE reporter assay in HepG2 cells. The data set is classed as cell-based.
For data set [6], the system named is human adipocyte-derived stem cells (ASC; ASC52telo, hTERT). Put plainly: Adipocyte-derived stem cell differentiation. The data set is classed as cell-based.
For data set [7], the target named is T1, PPARγ LBD. The data set is classed as biochemical.
In data set [8] the test system is COS7 cells. The data set is described as follows: Toxicity assay. As to conditions: up to 100 μM, 24 h. The data set is classed as cell-based.
The subject of data set [9] is FOXO. The data set is described as follows: FoxO response element. The data set is classed as cell-based. As to conditions: HepG2 cells, over time.
Data set [10] deals with T1, PPARγ LBD. The data set is classed as binding.
Data set [11] deals with nuclear receptors. Put plainly: Selectivity profiling in Gal4-hybrid reporter gene assays. The conditions noted are these: 100 μM. The data set is classed as cell-based, human.
The subject of data set [12] is genes comprising a PPAR response element. The conditions noted are these: cited from earlier work.

As to `CC1(C)CCC(C)(C)c2cc(C3(c4ccc(C(=O)O)cc4)OCCO3)ccc21` [SR11237, reference compound], in [1], the “PPARγ:RXR heterodimerization” value was “enhanced”.

Take `O=C(O)CSc1nc(Cl)cc(Nc2cccc(OCCc3ccccc3)c2)n1` [compound 2]: the “canonical PPAR signaling (gene expression)” value in data set [2] was “no induction”. Moreover, in [2] (p-value <0.05, |log2(fold change)| > 1), the “number of protein coding genes with significantly altered expression” value turned out to be 1750. In addition, the “phosphorylation of FOXO3a at Ser253” value in [3] is “promoted phosphorylation”. For the same compound, in data set [4], the “binding of 2 to the PPARγ LBD” value is listed as “dose-dependent manner”. Moreover, in data set [5] (alone), the “transcriptional activity via PPRE” value is given as “induced transcriptional activity”. Besides, in data set [5] (with pioglitazone), the “pioglitazone-mediated PPRE activation” value is “enhanced pioglitazone-mediated PPRE activation”. The pioglitazone-induced adipogenesis entry in [6] was “diminished”. For the same compound, in data set [6] (50 μM), the “adipogenesis (ASC differentiation)” value was “did not cause adipogenesis”. For the same compound, in data set [7], the CBP-1 recruitment entry is “displaced”, the DRIP2 recruitment entry is “displaced”, the NCOR recruitment entry was “enhanced binding” and the NCoA6 recruitment result is given as “weaker recruitment”. Also, in data set [7], the PGC-1α recruitment result is recorded as “weaker recruitment” and the SMRT recruitment result is “enhanced binding”. In addition, in data set [8], the “cytotoxic effects (apoptosis, necrosis)” value was “no cytotoxic effects”. In data set [1], the “PPARγ:RXR heterodimerization” value was “decreased heterodimer formation” and the “dimer stabilization by pioglitazone” value was “abrogated”. Besides, in data set [9], the “transcriptional activity of FOXO (FHRE activity)” value is “diminished”. Moreover, the “thermal stabilization of the PPARγ LBD” value in data set [10] is on record as “additive thermal stabilization”. Moreover, in data set [11], the “agonism / antagonism on nuclear receptors” value is on record as “neither revealed agonism nor antagonistic effects”.

In the case of `CCc1ccc(CCOc2ccc(CC3SC(=O)NC3=O)cc2)nc1` (centres unmarked) [pioglitazone, reference compound], the “FOXO signaling-related gene expression” value in data set [12] is “no effect”. In addition, the “PPARγ:RXR heterodimerization” value in [1] is given as “enhanced”.
